Values quoted from earlier work in paper PMC11599114 (Viruses, 2024).
Like-named read-outs stand apart in the source and are kept apart here.

Experiments:
SARS-CoV-2 [1] = details: SARS-CoV-2, Vero
HCoV-OC43 = details: HCoV-OC43, Vero
HSV-2 = details: HSV-2, Vero
HCoV-229E = details: Vero
HSV-1 = details: HSV-1, Vero
INFVA = tested on: INFVA; parameters: method as in AVPdb; details: ref AVPdb; for IC50: virus entry; for EC50: fusion
[2] = tested on: human parainfluenza virus 3 (HPIV3); parameters: method as in ref 16973588; details: HPIV3 fusion, HeLa
[3] = tested on: human parainfluenza virus 3 (HPIV3); parameters: method as in ref 16973588; details: HPIV3 infection, HeLa
SARS-CoV-2 [4] = tested on: SARS-CoV-2; parameters: method as in ref 34328726; details: for IC50: SARS-CoV-2 entry, HEK293T/ACE2
Measles virus(MeV) = details: VERO/hSLAM
[5] = tested on: influenza virus(H1N1,VR-1894); details: H1N1 VR-1894, MDKC
influenza A virus(H1N1) = tested on: influenza A virus(H1N1); parameters: method as in 2 sources; details: A(H1N1), MDCK

EKIXQSAXFIXKSDXLLHNV [DRAVPe00636]
IC50/EC50 (RSV; ref DRAVP): 0.95 ± 0.53 µM

EKIXQSLXFIXKSDXALHNV [DRAVPe00642]
IC50/EC50 (RSV; ref DRAVP): 0.88 ± 0.06 µM

FVPWFSKFlXRIL [DRAVPe00380]
IC90 (SARS-CoV-2 [1]): 25 µM
IC90 (HCoV-OC43): 27.7 µM
IC90 (HSV-2): 19 µM
IC90 (HCoV-229E): > 50 µM
IC90 (HSV-1): 15.9 µM

RRKKWLVFFVIFYFFR [AVP1754]
IC50 (INFVA): 4e-05 µM

EKIXQSLXFIXKSDXLLHAV [DRAVPe00644]
IC50/EC50 (RSV; ref DRAVP): 2.71 ± 2.93 µM

WLVFFVRRKK [AVP1806]
IC50 (INFVA): 0.638 µM

IINFYDPLVFPSDEFDASISQVNEKINQSLAFIRK [AVP0127]
IC50/EC50 (RSV; fusion, ref AVPdb): 91 µM

IDISIELNKAKSDLEESKEWIRRSNQKLDSIGNWH [DRAVPe00930]
IC50 [2]: 1.5 µM
IC50 [3]: 0.5 µM

YDPLVFPSDEFDASISQVNEKINQSLAFIRKSDEL [AVP0131]
IC50/EC50 (RSV; fusion, ref AVPdb): 6 µM

FVPWFSKFlGRIL [DRAVPe00377]
IC90 (SARS-CoV-2 [1]): 12.1 µM
IC90 (HCoV-OC43): 15 µM
IC90 (HSV-2): 16.7 µM
IC90 (HCoV-229E): 30.1 µM
IC90 (HSV-1): 18.7 µM

VALDPIDISIELNKAKSDLEESKEWIRRSNQKLDSD [DRAVPe01313]
IC50 [2]: 0.35 µM
IC50 [3]: 0.5 µM

DASISQVNEKINQSLAFIRKSDELLHNVNAGKSTT [AVP0142]
IC50/EC50 (RSV; fusion, ref AVPdb): 8 µM

FVPWFSKFlwRIL [DRAVPe00386]
IC90 (SARS-CoV-2 [1]): 14.8 µM
IC90 (HCoV-OC43): 17.4 µM
IC90 (HSV-2): 9.76 µM
IC90 (HCoV-229E): 50 µM
IC90 (HSV-1): 7.89 µM

EKIXQSLXFIXKSDXLLHNA [DRAVPe00645]
IC50/EC50 (RSV; ref DRAVP): 0.60 ± 0.03 µM

DITLNNSVALDPIDISIELNKAKSDLEESKEWIRRSNQKLDSIGN [DRAVPe01310]
IC50 [2]: 0.5 µM
IC50 [3]: 0.5 µM

SDEFDASISQVNEKINQSLAFIRKSDELLHNVNAG [AVP0138]
IC50/EC50 (RSV; fusion, ref AVPdb): 6 µM

EKIXASLXFIXKSDXLLHNV [DRAVPe00634]
IC50/EC50 (RSV; ref DRAVP): 0.28 ± 0.43 µM

SRDKHEEHEKENDRGQ [DRAVPe01986]
IC50 (SARS-CoV-2 [4]): 0.01 ± 0.005 µM
inhibition (SARS-CoV-2 [4]; at 25 µM): 100%

FVPWFSKFlPRIL [DRAVPe00378]
IC90 (SARS-CoV-2 [1]): 14 µM
IC90 (HCoV-OC43): 24.1 µM
IC90 (HSV-2): 19.2 µM
IC90 (HSV-1): 18.8 µM

DPLVFPSDEFDASISQVNEKINQSLAFIRKSDELL [AVP0132]
IC50/EC50 (RSV; fusion, ref AVPdb): 8 µM

EKIXQSLXFIXASDXLLHNV [DRAVPe00639]
IC50/EC50 (RSV; ref DRAVP): 10.93 ± 13.90 µM

FVPWFSKFlxRIL [DRAVPe00382]
IC90 (SARS-CoV-2 [1]): 17.4 µM
IC90 (HCoV-OC43): 24.7 µM
IC90 (HSV-2): 11.9 µM
IC90 (HCoV-229E): > 50 µM
IC90 (HSV-1): 12.8 µM

AETVESCLAKPHTEN [AVP0967]
IC50 (INFVA): 66 µM

EFDASISQVNEKINQSLAFIRKSDELLHNVNAGKS [AVP0140]
IC50/EC50 (RSV; fusion, ref AVPdb): 13 µM

VANDPIDISIELNKAKSDLEESKEWIRRSNQKLDSI [DRAVPe01312]
IC50 [2]: 0.75 µM
IC50 [3]: 1.1 µM

FVPWFSKFlXRILGGC [DRAVPe00390]
IC90 (Measles virus(MeV)): > 50 µM
IC90 (SARS-CoV-2 [1]): 50 µM
IC90 [5]: 49.9 µM
IC90 (HSV-1): 48 µM

EKIAQSLXFIRXSDXLLHXV [DRAVPe00629]
IC50/EC50 (RSV; ref DRAVP): 20.41 ± 2.4 µM

EKIXQSLXFIXKSDXLLANV [DRAVPe00643]
IC50/EC50 (RSV; ref DRAVP): 0.52 ± 0.07 µM

AVASVPRARGKYWWG [AVP0965]
IC50 (INFVA): 44 µM

WLVFFVIAYFAR [AVP1755]
IC50 (INFVA): 0.00087 µM

WLVFFVIFYFFR [AVP1756]
IC50 (INFVA): 0.0936 µM

EKIXQSLXFAXKSDXLLHNV [DRAVPe00638]
IC50/EC50 (RSV; ref DRAVP): 10.44 ± 2.97 µM

EKIXQALXFIXKSDXLLHNV [DRAVPe00635]
IC50/EC50 (RSV; ref DRAVP): 0.66 ± 0.26 µM

NFYDPLVFPSDEFDASISQVNEKINQSLAFIRKSD [AVP0129]
IC50/EC50 (RSV; fusion, ref AVPdb): >100 µM

AGDDQGLDKCVPNSKEK [AVP1195]
EC50 (INFVA): 3.7 ± 0.35 pM

EKINQSLAFIRKSDELLHNV [DRAVPe00623]
IC50/EC50 (RSV; ref DRAVP): >50 µM

QDKHEEDYQMYNKGDKED [DRAVPe01982]
IC50 (SARS-CoV-2 [4]): 0.018 ± 0.002 µM
inhibition (SARS-CoV-2 [4]; at 0.39 µM): 95%
inhibition (SARS-CoV-2 [4]; at 25 µM): 100%

DEFDASISQVNEKINQSLAFIRKSDELLHNVNAGK [AVP0139]
IC50/EC50 (RSV; fusion, ref AVPdb): 12 µM

FPSDEFDASISQVNEKINQSLAFIRKSDELLHNVN [AVP0136]
IC50/EC50 (RSV; fusion, ref AVPdb): 8 µM

NGESSADWAKN [AVP1196]
EC50 (INFVA): 225 ± 1.16 pM

GWWYKGRARPVSAVA [AVP0961]
IC50 (INFVA): 3.2 µM

PLVFPSDEFDASISQVNEKINQSLAFIRKSDELLH [AVP0133]
IC50/EC50 (RSV; fusion, ref AVPdb): 30 µM

FVPWFSKFlXRILC [DRAVPe00389]
IC90 (Measles virus(MeV)): > 50 µM
IC90 (SARS-CoV-2 [1]): 12 µM
IC90 [5]: 10 µM
IC90 (HSV-1): 11.1 µM

EKIXQSLXAIXKSDXLLHNV [DRAVPe00637]
IC50/EC50 (RSV; ref DRAVP): 1.39 ± 0.10 µM

EKIXQSLXFIXKSAXLLHNV [DRAVPe00641]
IC50/EC50 (RSV; ref DRAVP): 1.10 ± 0.08 µM

LVFPSDEFDASISQVNEKINQSLAFIRKSDELLHN [AVP0134]
IC50/EC50 (RSV; fusion, ref AVPdb): 9 µM

RRKKAAVALLPAVLLALLAP [AVP0554]
IC50 (INFVA): 8 µM

FVPWFSKFlWRIL [DRAVPe00385]
IC90 (SARS-CoV-2 [1]): 27.7 µM
IC90 (HCoV-OC43): 24.2 µM
IC90 (HSV-2): 12.5 µM
IC90 (HCoV-229E): 50 µM
IC90 (HSV-1): 8.25 µM

FDASISQVNEKINQSLAFIRKSDELLHNVNAGKST [AVP0143]
IC50/EC50 (RSV; fusion, ref AVPdb): 0.051 µM

RRKKIFYFFR [AVP1759]
IC50 (INFVA): 0.155 µM

RAVWRHSVATPSHSV [AVP0969]
IC50 (INFVA): > 500 µM

EAIXQSLXFIXKSDXLLHNV [DRAVPe00632]
IC50/EC50 (RSV; ref DRAVP): 0.60 ± 0.02 µM

EXINXSLXFIRXSDALLHNV [DRAVPe00646]
IC50/EC50 (RSV; ref DRAVP): 1.00 ± 0.03 µM

DFRRLPGAFWQLRQP [AVP0966]
IC50 (INFVA): 52 µM

EKIXQSLXFIXKADXLLHNV [DRAVPe00640]
IC50/EC50 (RSV; ref DRAVP): 82.04 ± 1.56 µM

VALDPIDISIELNKAKSDLEESKEWIRRSNQKLDSI [DRAVPe01311]
IC50 [2]: 0.5 µM
IC50 [3]: 0.5 µM

AKIXQSLXFIXKSDXLLHNV [DRAVPe00631]
IC50/EC50 (RSV; ref DRAVP): 1.16 ± 0.08 µM

VFPSDEFDASISQVNEKINQSLAFIRKSDELLHNV [AVP0135]
IC50/EC50 (RSV; fusion, ref AVPdb): 19 µM

FYDPLVFPSDEFDASISQVNEKINQSLAFIRKSDE [AVP0130]
IC50/EC50 (RSV; fusion, ref AVPdb): 20 µM

IPLRGAFINGRWDSQCHRFS [DRAVPe01801]
IC50 (influenza A virus(H1N1)): 12.9 µg/mL

PSDEFDASISQVNEKINQSLAFIRKSDELLHNVNA [AVP0137]
IC50/EC50 (RSV; fusion, ref AVPdb): 6 µM

FINGRWDSQCHRFSNGAIACA [DRAVPe01800]
IC50 (influenza A virus(H1N1)): 6.6 µg/mL

NFYDPLVFPSDEFDASISQVNEKINQSLASIRKSDELLHNVNAGK [AVP1972]
IC50/EC50 (RSV; fusion, ref AVPdb): 2.93 µM

GWWYKGRARAVSAVA [AVP0964]
IC50 (INFVA): 89 µM

CGGFVPWFSKFlXRIL [DRAVPe00392]
IC90 (Measles virus(MeV)): 49.9 µM
IC90 (SARS-CoV-2 [1]): 10.2 µM
IC90 [5]: 9.9 µM
IC90 (HSV-1): 8.21 µM

GAWYKGRARPVSAVA [AVP0963]
IC50 (INFVA): 53 µM

FFVIFYRRKK [AVP1808]
IC50 (INFVA): 1.48 µM

EXINXSLXFIRXSDELLHNV [DRAVPe00626]
IC50/EC50 (RSV; ref DRAVP): 0.59 ± 0.13 µM

EKAXQSLXFIXKSDXLLHNV [DRAVPe00633]
IC50/EC50 (RSV; ref DRAVP): 1.30 ± 0.89 µM

CFVPWFSKFlXRIL [DRAVPe00391]
IC90 (Measles virus(MeV)): 31.1 µM
IC90 (SARS-CoV-2 [1]): 1.89 µM
IC90 [5]: 5.89 µM
IC90 (HSV-1): 2.19 µM

WLVFFVIFYFFRRRKK [AVP1753]
IC50 (INFVA): 3e-05 µM

EKINQSLXFIAXSDXLLHXV [DRAVPe00630]
IC50/EC50 (RSV; ref DRAVP): 175 ± 0.00 µM

SKHSSLDCVLRP [AVP1194]
EC50 (INFVA): 4 ± 0.37 pM

INFYDPLVFPSDEFDASISQVNEKINQSLAFIRKS [AVP0128]
IC50/EC50 (RSV; fusion, ref AVPdb): 93 µM

AVSKVLHLEGEVNKISALLSTNKAVVSLSNGVSVLTSKVLDLDNYIDKQLLPIVNK [AVP1971]
IC50/EC50 (RSV; fusion, ref AVPdb): 1.68 µM

IYALLENAEDYNLVN [DRAVPe01985]
IC50 (SARS-CoV-2 [4]): 0.009 ± 0.004 µM
inhibition (SARS-CoV-2 [4]; at 25 µM): 100%
